The results in this text go back to the OligoGym collection.

HELM strings list units from the 5' end as sugar, base in round brackets, then linkage (d deoxyribose, r ribose, m 2'-O-methyl, p phosphodiester). Strings are as the collection lists them; they lack the last nucleoside at the 3' end of the tested compound. [moe] = 2'-O-(2-methoxyethyl) (MOE); [sp] = phosphorothioate linkage; [m5C] = 5-methylcytosine

This data set deals with UBE3A-ATS. The data set can be described thus: mouse, dose not given. To be noted: ASO.

In turn, “RNA1{[moe](T)[sp].[moe](G)p.[moe](A)p.[moe](G)[sp].d([m5C])[sp].d(T)[sp].d(A)[sp].d(T)[sp].d([m5C])[sp].d(T)[sp].d(G)[sp].d(T)[sp].[moe](A)p.[moe]([m5C])p.[moe](A)p.[moe](A)[sp].[moe](A)}$$$$ (last 3' nucleoside missing)” displayed a 3 h FOB score of 3 score 0-7.

As to “RNA1{[moe](T)[sp].[moe](G)p.[moe](A)p.[moe](G)p.[moe]([m5C])[sp].d(T)[sp].d(A)[sp].d(T)[sp].d([m5C])[sp].d(T)[sp].d(G)[sp].d(T)[sp].d(A)[sp].[moe]([m5C])p.[moe](A)p.[moe](A)[sp].[moe](A)}$$$$ (last 3' nucleoside missing)”, the 3 h FOB score came out at 4.7 score 0-7.

Substance “RNA1{[moe](T)[sp].[moe](G)p.[moe](A)p.[moe](G)p.[moe]([m5C])p.[moe](T)[sp].d(A)[sp].d(T)[sp].d([m5C])[sp].d(T)[sp].d(G)[sp].d(T)[sp].d(A)[sp].d([m5C])[sp].[moe](A)p.[moe](A)[sp].[moe](A)}$$$$ (last 3' nucleoside missing)” returned a 3 h FOB score of 5 score 0-7.

For “RNA1{[moe](T)[sp].[moe](G)p.[moe](A)p.[moe](G)p.[moe]([m5C])p.[moe](T)p.d(A)[sp].d(T)[sp].d([m5C])[sp].d(T)[sp].d(G)[sp].d(T)[sp].d(A)[sp].d([m5C])[sp].d(A)[sp].d(A)[sp].[moe](A)p.[moe](A)[sp].[moe](T)}$$$$ (last 3' nucleoside missing)”, the 3 h FOB score came out at 5.3 score 0-7.

“RNA1{[moe](T)[sp].[moe](G)p.[moe](A)p.[moe](G)p.[moe]([m5C])p.d(T)[sp].d(A)[sp].d(T)[sp].d([m5C])[sp].d(T)[sp].d(G)[sp].d(T)[sp].d(A)[sp].d([m5C])[sp].d(A)[sp].[moe](A)p.[moe](A)p.[moe](A)[sp].[moe](T)}$$$$ (last 3' nucleoside missing)” showed a 3 h FOB score of 6.2 score 0-7.

In the case of “RNA1{[moe](T)[sp].[moe](G)p.[moe](A)p.[moe](G)p.d([m5C])[sp].d(T)[sp].d(A)[sp].d(T)[sp].d([m5C])[sp].d(T)[sp].d(G)[sp].d(T)[sp].d(A)[sp].d([m5C])[sp].[moe](A)p.[moe](A)p.[moe](A)p.[moe](A)[sp].[moe](T)}$$$$ (last 3' nucleoside missing)”, the 3 h FOB score was found to be 5.5 score 0-7.

“RNA1{[moe](T)[sp].[moe](G)p.[moe](A)p.[moe](T)[sp].d([m5C])[sp].d(A)[sp].d([m5C])[sp].d(A)[sp].d(T)[sp].d(T)[sp].d(A)[sp].d([m5C])[sp].[moe]([m5C])p.[moe]([m5C])p.[moe](A)p.[moe](T)[sp].[moe]([m5C])}$$$$ (last 3' nucleoside missing)” returned a 3 h FOB score of 0 score 0-7.

For the substance “RNA1{[moe](T)[sp].[moe](G)p.[moe](A)p.[moe](T)p.[moe](A)p.d(G)[sp].d(A)[sp].d(T)[sp].d(A)[sp].d([m5C])[sp].d(T)[sp].d(T)[sp].d(G)[sp].d(T)[sp].d(A)[sp].[moe](T)p.[moe](T)p.[moe](A)[sp].[moe](G)}$$$$ (last 3' nucleoside missing)”, the 3 h FOB score stood at 3.8 score 0-7.

Turning to “RNA1{[moe](T)[sp].[moe](G)p.[moe](A)p.[moe](T)p.[moe]([m5C])[sp].d(A)[sp].d([m5C])[sp].d(A)[sp].d(T)[sp].d(T)[sp].d(A)[sp].d([m5C])[sp].d([m5C])[sp].[moe]([m5C])p.[moe](A)p.[moe](T)[sp].[moe]([m5C])}$$$$ (last 3' nucleoside missing)”, the 3 h FOB score turned out to be 1 score 0-7.

The substance “RNA1{[moe](T)[sp].[moe](G)p.[moe](A)p.[moe](T)p.[moe]([m5C])p.[moe](A)[sp].d([m5C])[sp].d(A)[sp].d(T)[sp].d(T)[sp].d(A)[sp].d([m5C])[sp].d([m5C])[sp].d([m5C])[sp].[moe](A)p.[moe](T)[sp].[moe]([m5C])}$$$$ (last 3' nucleoside missing)” came in with a 3 h FOB score of 0 score 0-7.
